Experimental data from patent publication US6489313B1, “Memory by the administration of Δ5-androstene-3β-ol-7,17-dione and 3β esters” (Humanetics Corporation, priority 1998, dated 2002).

How the values were obtained:
Aged, two year old mice = experiment: Morris water maze procedure, aged mice; type: in vivo; settings: two weeks after treatment, DHEA 20 mg/kg or equimolar amount, control 36 seconds
Protocol: Aged, two year old mice were tested in the Morris water maze procedure by training the mice to locate the pedestal in less than 15 seconds in three consecutive trials. Immediately upon completion of training one group of mice was treated with DHEA (20 mg/kg) and a second group treated with an eqimolar amount of Δ5-Androstene-3β-acetyl-7,17-dione. Two weeks after treatment the time to rescue was timed in the Morris water maze procedure at: Control 36 seconds, DHEA 27 seconds, and Δ5-Androstene-3β-acetyl-7,17-dione 13 seconds.

C57BL76 mice = experiment: Morris water maze procedure, scopolamine-induced amnesia; type: in vivo
Protocol: Groups of 13 to 16 C57BL76 mice (35 gm) were tested in the Morris. water maze procedure by training the mice to locate the pedestal in less than 15 seconds in three consecutive trials. Immediately upon completion of training the mice in each of three groups were treated with scopolamine (1 mg/kg), scopolamine+DHEA, or scopolamine+Δ5-Androstene-3β-acetyl-7,17-dione.

[1] = C57BL76 mice (35 gm), scopolamine 1 mg/kg alone or with the steroid, six days after treatment, control 12.2±1.8

SMILES	time to rescue in the Morris water maze procedure (Aged, two year old mice)	average time to rescue in the Morris water maze procedure (C57BL76 mice; mouse, in vivo)	average time to rescue in the Morris water maze procedure (C57BL76 mice; [1])
C[C@]12CC[C@H](O)CC1=CC[C@@H]1[C@@H]2CC[C@]2(C)C(=O)CC[C@@H]12 [DHEA, dehydroepiandrosterone]	27 s	9.7 ± 1.6 s	–
CN1[C@@H]2C[C@@H](OC(=O)[C@H](CO)c3ccccc3)C[C@H]1[C@@H]1O[C@@H]12 [scopolamine]	–	–	20.0 ± 3.6 s
CC(=O)O[C@H]1CC[C@@]2(C)C(=CC(=O)[C@@H]3[C@@H]2CC[C@]2(C)C(=O)CC[C@@H]32)C1 [Δ5-Androstene-3β-acetyl-7,17-dione]	13 s	–	8.3 ± 1.8 s
